{"source": "patent US20240182406A1", "about": "“COMPOUNDS AS SOLUBLE EPOXIDE HYDROLASE INHIBITORS” (UNIVERSITAT DE BARCELONA, priority 2021, published 2024)", "key": {"amyloid plaques": {"test_system": "amyloid plaques", "assay": "Thioflavin S staining of amyloid plaques in brain slices (5×FAD mice)", "type": "in vivo, mouse", "settings": "5×FAD male mice 6-month-old, 5 mg/kg, 4 weeks, mean ± SEM", "excerpt": "5×FAD (tg6799) is an early-onset mouse transgenic model which overexpress mutant human APP(695) with the Swedish (K670N, M671L), Florida (I716V) and London (V717I) Familial Alzheimer's Disease (FAD) mutations along with human PS1 harbouring two FAD mutations (M146L and L286V). The Tg6799 line used is the original hybrid B6SJL background, and this hybrid B6SJL strain is used as a control of healthy animals. The mouse Thy1 promoter regulates both transgenes to drive overexpression in the brain. 5×FAD mice recapitulate major features of AD amyloid pathology and is a useful model of intraneuronal Abeta-42 induced neurodegeneration with amyloid increase brain content and amyloid plaque formation and tau hyperphosphorylation (J Neurosci. 2006, 26(40), 10129-10140).\nThe test compound was dissolved in 1.8% hydroxypropyl-beta-cyclodextrin and concentration in water was calculated according to the weekly animal consumption to reach the precise daily dose. A freshly made weekly replaces the drinking solution. The amount of water that the animals drink was monitored weekly, by the cage, and drug concentration was adjusted every week to reach the precise dose. After 4 weeks of maintained treatment, mice were studied in the behavioural tests.\nAfter NORT, animals were sacrificed and the whole hippocampus dissected or brain slices from control and treated mice obtained by using a cryostat. […]"}, "SH-SY5Y cells": {"test_system": "SH-SY5Y cells", "settings": "100 μM, 24 h", "description": "50 ul of Cell titer Glo reagent was added to each well and incubated for 10 min."}, "CD1 mice": {"test_system": "CD1 mice", "assay": "Seizure assay (pentylenetetrazole, PTZ test)", "type": "in vivo, mouse", "description": "Test compounds were dissolved in 20% hydroxypropyl-beta-cyclodextrin and concentration was calculated according to the animal weigh to reach the precise dose. Animals were housed in standard care facilities with a 12 hours light-dark cycle with free access to water and food.\nTo investigate the ability of compounds to cross the blood-brain barrier (BBB), a standard acute test involving the administration of pro-convulsant pentylenetetrazole (PTZ) was employed [Inceoglu et al, PLoS ONE, 2013, 8(12), e80922; WO 2015/148954 A1]. In the test, PTZ was administered at 85 mg/Kg by subcutaneous route, time to onset of first clonic seizure, average of clonic seizures, tonic seizure latency and lethality were monitored for 30 min. Vehicles or compounds were administered by gavage at 5 mg/kg 1 h prior to pro-convulsant."}, "5×FAD mice": {"test_system": "5×FAD mice", "assay": "Novel Object Recognition Test (NORT) in 5×FAD mouse model of Alzheimer disease", "type": "in vivo", "settings": "5×FAD model, 5 mg/kg, treated vs control groups", "excerpt": "5×FAD (tg6799) is an early-onset mouse transgenic model which overexpress mutant human APP(695) with the Swedish (K670N, M671L), Florida (I716V) and London (V717I) Familial Alzheimer's Disease (FAD) mutations along with human PS1 harbouring two FAD mutations (M146L and L286V). The Tg6799 line used is the original hybrid B6SJL background, and this hybrid B6SJL strain is used as a control of healthy animals. The mouse Thy1 promoter regulates both transgenes to drive overexpression in the brain. […]\nThe test compound was dissolved in 1.8% hydroxypropyl-beta-cyclodextrin and concentration in water was calculated according to the weekly animal consumption to reach the precise daily dose. […] The amount of water that the animals drink was monitored weekly, by the cage, and drug concentration was adjusted every week to reach the precise dose. […]\nMice were placed in a 90°, two-arm, 25-cm-long, 20-cm-high, 5-cm-wide black maze. […] During this second trial, objects A and B were placed in the maze and the behaviour of the mice was recorded with a camera. The time that the mice explored the New object (TN) and Time that the mice explored the Old object […] (TO) were measured. […]"}, "[1]": {"settings": "5 mg/kg by gavage 1 h prior to PTZ 85 mg/Kg s.c., monitored 30 min"}}, "note": "Marks after values point to notes of the source that are not given here."}
{"smiles": "O=C(NC12CC3CC(Cl)(CC(C1)c1ccccc13)C2)N[C@H]1CC[C@H](Oc2ccc(C(=O)O)cc2)CC1", "note": "[Example 2, 4-[((1r,4r)-4-(3-(9-chloro-5,6,8,9,10,11-hexahydro-7H-5,9:7,11-dimethanobenzo[9]annulen-7-yl)ureido)cyclohexyl)oxy]benzoic acid]", "values": [{"measurement": "Number of Aβ plaques", "setting": "amyloid plaques", "result": "292 ± 83"}, {"measurement": "neuronal cell toxicity (viability)", "setting": "SH-SY5Y cells", "result": "did not show any neuronal cell toxicity"}, {"measurement": "Average clonic seizure", "setting": "CD1 mice; [1]", "result": 1.25}, {"measurement": "Mean time to clonic seizure latency", "setting": "CD1 mice; [1]", "result": 1006.5, "unit": "s"}, {"measurement": "Protected from tonic/total (Mortality)", "setting": "CD1 mice; [1]", "result": "6/6****"}, {"measurement": "Mean time to tonic seizure", "setting": "CD1 mice; 5 mg/kg by gavage 1 h prior to PTZ 85 mg/Kg s.c., animals without tonic seizure within 30 min excluded", "result": 0.00, "unit": "s"}, {"measurement": "Mean time to tonic seizure in seconds", "setting": "CD1 mice; 5 mg/kg by gavage 1 h prior to PTZ 85 mg/Kg s.c., animals without tonic seizure within 30 min excluded, listed as compound of Example 2", "result": "delay onset of tonic seizures"}, {"measurement": "protection from convulsions and associated lethality", "setting": "CD1 mice; PTZ test, 5 mg/kg by gavage", "result": "protect mice from convulsions and associated lethality"}, {"measurement": "memory deficits by NORT", "setting": "5×FAD mice", "result": "reduced memory deficits"}]}
